The source of these data is PMC11855827, “High-Throughput Screening of Five Compound Libraries for Anthelmintic Activity and Toxicity Leads to the Discovery of Two Flavonoid Compounds” (International Journal of Molecular Sciences, 2025).

This test relates to C. elegans. Description: microbe, parasite or virus in culture. Particulars: Caenorhabditis elegans.
The mark [1] stands for this setting: 0 h, read-out: Percentage of motility inhibition 0 h, Table S2, C. elegans SS assay, 110 μM, 0 h, averages of 4 data points.
[2] abbreviates: 24 h, read-out: Percentage of motility inhibition 24 h, Table S2, C. elegans SS assay, 110 μM, 24 h, averages of 4 data points.
Where [3] appears, read: 0 h, read-out: Percentage of motility inhibition 0 h.
The mark [4] stands for this setting: 24 h, read-out: Percentage of motility inhibition 24 h.

Read-outs that look alike come from different tables or passages of the source.

Take `CC(C)N1CCN(c2ccc(OCC3COC(Cn4cncn4)(c4ccc(Cl)cc4Cl)O3)cc2)CC1` (centres unmarked) [Terconazole]: the inhibition at 110 µM by setting is: under setting [1], 26%; under setting [2], 3%.
For `O=C(Nc1ccc(Cl)cc1)Nc1ccc(Cl)c(Cl)c1` [Triclocarban], in that order: 15% and 20%.
Taken in the same sequence, the figures for `COc1ccc(-c2cc(=O)c3c(OC)c(OC)c(OC)c(OC)c3o2)cc1` [Tangeretin] were 14% and 8%.
Consider `N[C@@H](Cc1c[nH]c2ccccc12)C(=O)O` [L-Tryptophan], for which the inhibition at 110 µM runs as follows: under setting [3], 26%; under setting [4], 3%.
As to `C[C@H](C[C@H](O)[C@H]1OC1(C)C)C1=C2C[C@H](O)[C@H]3[C@@]4(C)CCC(=O)C(C)(C)[C@@H]4CC[C@]3(C)[C@@]2(C)CC1` [Alisol B], the inhibition at 110 µM was determined as 3% under setting [3] and 10% under setting [4].
Regarding `CC(C)=CCc1cc2c(cc1O)O[C@H](c1ccc(O)cc1)CC2=O` [Bavachin], the inhibition at 110 µM under setting [1] is 27% and the inhibition at 110 µM under setting [2] came to 24%.
As to `O=C1N[C@@H]2[C@@H](O)[C@@H](O)[C@H](O)[C@@H](CO)N2C1=O` [Kifunensine], the inhibition at 110 µM was 30% under setting [1] and 5% under setting [2].
For the molecule `COc1cccc(O)c1-c1cc(=O)c2c(O)c(OC)c(OC)c(OC)c2o1` [Skullcapflavone II], the inhibition at 110 µM came to 4% under setting [3] and 6% under setting [4].
Turning to `CCCCCCCC/C=C\CCCCCCCC(=O)O` [Oleic acid], the inhibition at 110 µM reads like this: under setting [1], 0%; under setting [2], 0%.
Take `COc1cc2c(cc1OC)-c1c(C)c3ccc(OC)c(OC)c3c[n+]1CC2` [Dehydrocorydaline]: the inhibition at 110 µM reads like this: under setting [1], 4%; under setting [2], 0%.
As for `CC(=O)Oc1ccccc1C(=O)Nc1ncc([N+](=O)[O-])s1` [Nitazoxanide], the inhibition at 110 µM under setting [1] was 51% and the inhibition at 110 µM under setting [2] came out at 49%.
Take `O=C(O)[C@@H]1[C@H]2C[C@H]3c4[nH]c5ccccc5c4CCN3C[C@@H]2CC[C@@H]1O` [Yohimbic acid]: the inhibition at 110 µM stood at 4% under setting [1] and 51% under setting [2].
On to `[H]/N=C(/N)NS(=O)(=O)c1ccc(N)cc1` [Sulfaguanidine], for which the inhibition at 110 µM is, setting by setting: under setting [1], 22%; under setting [2], 8%.
As to `C=C(C)[C@@H](CC=C(C)C)C[C@@]12C[C@@H](CC=C(C)C)C(C)(C)[C@@](CC=C(C)C)(C(=O)C(C(=O)c3ccc(O)c(O)c3)=C1O)C2=O` [Garcinol], the inhibition at 110 µM runs as follows: under setting [1], 8%; under setting [2], 3%.
In the case of `O=c1ccc2ccc(O)c(O)c2o1` [Daphnetin], the inhibition at 110 µM under setting [1] was 0% and the inhibition at 110 µM under setting [2] came to 1%.
Consider `CC(C)=CCC[C@](C)(O[C@@H]1O[C@H](CO)[C@@H](O)[C@H](O)[C@H]1O)[C@H]1CC[C@]2(C)[C@@H]1[C@H](O)C[C@@H]1[C@@]3(C)CC[C@H](O)C(C)(C)[C@@H]3[C@@H](O[C@@H]3O[C@H](CO)[C@@H](O)[C@H](O)[C@H]3O[C@@H]3O[C@@H](C)[C@H](O)[C@@H](O)[C@H]3O)C[C@]12C` [Ginsenoside Re], for which the inhibition at 110 µM under setting [1] was 0% and the inhibition at 110 µM under setting [2] was found to be 0%.
For the molecule `C=C1C[C@]23C[C@@]1(O)CC[C@H]2[C@@]12C=C[C@H](O)[C@@](C)(C(=O)O1)[C@H]2[C@@H]3C(=O)O` [Gibberellic acid], the inhibition at 110 µM by setting is: under setting [1], 17%; under setting [2], 22%.
For the molecule `CC1=C[C@]2(O)O[C@@]3(CC2=C(C)C)[C@@H](C)CC[C@@H]13` [Curcumenol], the inhibition at 110 µM turned out to be 0% under setting [1] and 38% under setting [2].
`COc1cc2cc(c1Cl)N(C)C(=O)CC(O)C1(C)OC1C(C)C1CC(O)(NC(=O)O1)C(OC)/C=C/C=C(\C)C2` (centres unmarked) [Maytansinol]: the inhibition at 110 µM reads like this: under setting [1], 0%; under setting [2], 0%.
For `C[C@]12CC[C@@H]3c4ccc(O)cc4CC[C@H]3[C@@H]1C[C@@H](O)[C@@H]2O` [Estriol], the inhibition at 110 µM is 2% under setting [1] and 10% under setting [2].
As to `Nc1nc(=O)c2nc(CNc3ccc(C(=O)N[C@@H](CCC(=O)O)C(=O)O)cc3)cnc2[nH]1` [Folic acid], the inhibition at 110 µM came out at 23% under setting [1] and 17% under setting [2].
Regarding `C[C@@H]1CC[C@H]2C(C)(C)[C@H]3C[C@@]12CC[C@@]3(C)O` [Cedrol], the inhibition at 110 µM runs as follows: under setting [1], 8%; under setting [2], 13%.
Turning to `C=C1CCC2(C(C)C)CC12` (centres unmarked) [Sabinene], the inhibition at 110 µM was determined as 0% under setting [1] and 20% under setting [2].
For `CC1(C)C[C@H]2C3=CC[C@@H]4[C@@]5(C)CC[C@H](O)[C@](C)(CO)[C@@H]5CC[C@@]4(C)[C@]3(C)CC[C@@]2(C)[C@H](O)[C@@H]1O` [Soyasapogenol A], in that order: 5% and 3%.
Regarding `O=c1ccc2cc3ccoc3cc2o1` [Psoralen], the inhibition at 110 µM is 14% under setting [3] and 14% under setting [4].
Consider `O=C1NCN(c2ccccc2)C12CCN(CCCOc1ccc(F)cc1)CC2` [Spiramide], for which the inhibition at 110 µM was determined as 49% under setting [1] and 6% under setting [2].
For `COc1cc(O)c(C(=O)/C=C/c2ccc(O)cc2)c(OC)c1` [Flavokawain C], in that order: 18% and 20%.
Taken in the same sequence, the figures for `COc1cc(O)c2c(=O)c(-c3ccc(O)cc3)coc2c1` [Prunetin] were 0% and 7%.
For `CC(=O)O[C@@H]1[C@H]2[C@H]3C[C@H]4C5=Nc6ccccc6[C@]51C[C@@H]2N4[C@H](C)C3C=O` (some centres unmarked) [Perakine], in that order: 0% and 0%.
In the case of `C/C1=C\CCC2=C[C@@H](OC2=O)c2c(C)coc2C1` [Linderalactone], the inhibition at 110 µM was 0% under setting [1] and 45% under setting [2].
Regarding `CC(=O)O[C@H]1C[C@H](O[C@H]2[C@@H](O)C[C@H](O[C@H]3[C@@H](O)C[C@H](O[C@H]4CC[C@@]5(C)[C@H](CC[C@@H]6[C@@H]5C[C@@H](O)[C@]5(C)[C@@H](C7=CC(=O)OC7)CC[C@]65O)C4)O[C@@H]3C)O[C@@H]2C)O[C@H](C)[C@H]1O[C@@H]1O[C@H](CO)[C@@H](O)[C@H](O)[C@H]1O` [Lanatoside C], the inhibition at 110 µM is, setting by setting: under setting [1], 0%; under setting [2], 2%.
In the case of `CC(C)=CCC[C@](C)(O[C@@H]1O[C@H](CO[C@@H]2OC[C@@H](O)[C@H](O)[C@H]2O)[C@@H](O)[C@H](O)[C@H]1O)[C@H]1CC[C@]2(C)[C@@H]1[C@H](O)C[C@@H]1[C@@]3(C)CC[C@H](O[C@@H]4O[C@H](CO)[C@@H](O)[C@H](O)[C@H]4O[C@@H]4O[C@H](CO)[C@@H](O)[C@H](O)[C@H]4O)C(C)(C)[C@@H]3CC[C@]12C` [Ginsenoside Rb3], the inhibition at 110 µM by setting is: under setting [1], 6%; under setting [2], 1%.
As to `O=C(O)c1cccnc1C(=O)O` [Quinolinic acid], the inhibition at 110 µM is, setting by setting: under setting [1], 0%; under setting [2], 0%.
In the case of `CC[C@H]1CN2CC[C@@]3(C(=O)Nc4ccccc43)[C@@H]2C[C@@H]1/C(=C\OC)C(=O)OC` [Isorhynchophylline], the inhibition at 110 µM by setting is: under setting [1], 0%; under setting [2], 0%.
